# Test results taken from patent US20130281298A1 (priority 2012, published 2013).
# System: citrus greening (HLB)
# Format: in vivo, orange tree
smiles,measurement,setting,value
OC[C@H]1O[C@H](O[C@H]2O[C@H](CO)[C@@H](O)[C@H](O)[C@H]2O)[C@H](O)[C@@H](O)[C@@H]1O [trehalose],new leaf formation on apparently dead branches,"as late as four months after treatment, tree seriously afflicted with citrus greening",new leaves that are formed even on apparently dead branches
same,condition of tree after foliar treatment,"four months after one foliar treatment to the canopy of leaves, 1 gram trehalose per 1 gallon of water, 100 gallons/acre",nearly complete renewal of the tree
same,development of flowers,three months after single foliar treatment,prolific development of flowers
